Measured values taken from PMC10794626, “Investigations of potential non-amino acid SNAT2 inhibitors” (Frontiers in Pharmacology, 2024).
≈ marks a conversion by molar mass, not a printed value. Where a name gives a salt, the structure may show the parent alone. Read-outs that look alike come from different tables or passages of the source. Each block holds one compound with its values, some of them ahead of it.

Key:
[1] = target: T1, SNAT2 (Homo sapiens, UniProt Q96QD8); assay: 3H-Gly uptake in hyperosmotically treated PC-3 cells; type: cell-based; conditions: for Inhibition of 3H-Gly uptake (overall finding, in words): concentration not given, 54F at the highest soluble concentration
T1 construct: endogenous in cells; host or cells: PC-3 cells (ECACC 90,112,714), 24 h in hyperosmotic medium
T1 sequence (Q96QD8 1-506): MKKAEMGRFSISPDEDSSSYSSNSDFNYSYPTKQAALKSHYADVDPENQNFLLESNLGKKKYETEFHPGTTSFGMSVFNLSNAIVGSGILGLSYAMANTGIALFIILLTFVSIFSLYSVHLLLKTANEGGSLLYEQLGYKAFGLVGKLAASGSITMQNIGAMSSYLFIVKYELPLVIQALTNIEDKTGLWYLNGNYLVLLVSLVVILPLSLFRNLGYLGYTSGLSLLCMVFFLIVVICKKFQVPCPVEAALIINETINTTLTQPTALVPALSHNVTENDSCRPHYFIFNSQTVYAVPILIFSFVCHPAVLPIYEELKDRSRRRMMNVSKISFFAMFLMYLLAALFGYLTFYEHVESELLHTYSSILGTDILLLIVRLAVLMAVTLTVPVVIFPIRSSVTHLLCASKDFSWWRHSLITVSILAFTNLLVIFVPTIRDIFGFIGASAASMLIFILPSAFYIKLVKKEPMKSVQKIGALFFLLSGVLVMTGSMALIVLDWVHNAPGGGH
Description: PC-3 cells (ECACC 90,112,714) were obtained from the European Collection of Authenticated Cell Cultures (ECACC; UK Health Security Agency, Salisbury, United Kingdom) and were received in passage 31. […] The cells were kept incubated at 37°C in an atmosphere of 5% CO2 and 94%–97% relative humidity and the culture medium was changed every 2–3 days. For hyperosmotic stimulation, PC-3 cells were incubated in hyperosmotic media for 24 h before the uptake experiment. The hyperosmotic media was made by supplementing normal isoosmotic culture medium with 200 mM raffinose to reach an osmolality of approximately 500 mOsm ⋅ kg^−1. For uptake studies, the PC-3 cells were seeded in 24-well plates (area of 1.9 cm^2) at a density of 1.5 ⋅ 10^5 cells ⋅ cm^−2 2 days before the experiment. Experiments were performed using PC-3 cells in passages 2–15 after thawing.
Hyperosmotically treated PC-3 cells were used to study the uptake of radiolabeled ^3H-Gly. Solutions were prepared using Hanks Balanced Salt Solution (HBSS), which consisted of the following (mM): CaCl2, 1.26; MgCl2, 0.49; MgSO4, 0.41; KCl, 5.33; KH2PO4, 0.44; NaCl, 138; Na2HPO4, 0.34; D-glucose, 5.56; NaHCO3, 4.17. HBSS was supplemented with 10 mM HEPES and adjusted to pH 7.4 ± 0.01 (HBSS*) with […]. Donor solutions contained 0.5 μCi/mL of ^3H-glycine (11.1 nM). MMTC was also investigated at a substrate concentration of 100 µM Gly, which was achieved by the addition of unlabeled Gly to donor solutions containing 0.5 μCi/mL of ^3H-Gly (11.1 nM). […] Before starting the uptake experiment the media was aspirated, and the cells were preincubated in HBSS* for 15 min at 37°C and 220 rpm. To initiate the uptake study, the buffer was removed and 300 µL of prewarmed (37°C) donor solution was added to the cells and incubated at 37°C. During incubation, the cells were circularly rotated at 220 rpm using a Talboys incubating microplate shaker (Troemner, Thorofare, NJ, United States). After 5 min, the uptake experiment was terminated by removing the buffer solutions by vacuum suction, and the cells were washed thrice with 500 µL ice-cold HBSS. […] The cells were then detached by applying 200 µL of 0.1% Triton-X 100 for at least 25 min and cells were then transferred to scintillation vials along with 2 mL of Ultima Gold scintillation fluid. The vials were vortexed before being analyzed by a liquid scintillation counter, which was a TriCarb 4910 TR from PerkinElmer (Waltham, MA, United States).
^3H-Gly uptake values were normalized to the control uptake of each experiment, but without subtracting any background uptake.
Statistical differences were tested in GraphPad Prism 9.4.1 using one-way ANOVA followed by Dunnett’s multiple comparison test. The significance level used was p < 0.05 (*). Data are represented as means ± SEM from independent cell passages (n) unless otherwise stated.

[2] = Equilibrium solubility in HBSS* buffer (HPLC-UV); type: physicochemical; conditions: HEPES buffered HBSS (HBSS*) buffer, pH 7.4, 37°C, mean ± SD, N = 3
Description: The mobile phases (MP) consisted of ultra-pure water containing 0.1% trifluoroacetic acid (MP A) and acetonitrile containing 0.1% trifluoroacetic acid (MP B). A reversed-phase column (Nova-Pak® C18, 4 μm, 3.9 × 150 mm, Waters, Milford, MA, United States) was applied and maintained at 22°C. The flow was constant at 0.6 mL ⋅ min^−1 with an isocratic elution of 40% MP A and 60% MP B for 53B, 55B, and 57B, an isocratic elution of 30% MP A and 70% MP B with a constant flow of 0.8 mL ⋅ min^−1 for MMTC, and an isocratic elution of 60% MP A and 40% MP B with a constant flow of 0.6 mL ⋅ min^−1 for […]. Samples of 20 μL, maintained at 25°C, were injected and all five compounds were measured at 270 nm. […] The calibration curves ranged from 5 to 30 µM for MMTC and 53B and from 7.5 to 30 µM for 54F, 55B, and 57B. Linear regression of peak height as a function of concentration was analyzed using GraphPad Prism 9.4.1.
The 5 mL vials were then left on a rotator covered in aluminum foil at 37°C. After 72 h rotation, the solutions were equally distributed into three 1.5 mL microtubes, to do triplicate measurements, and centrifuged at 10,000 g at room temperature for 10 min. The supernatant was removed and for 53B, 54F, and 57B the supernatant was diluted 1:2 with their respective mobile phases. For MMTC and 55B, the supernatant was diluted 2:1 with their respective mobile phase. The diluted samples were analyzed by HPLC-UV as described in Section 2.4.
For the quantification of MMTC, 53B, 54F, 55B, and 57B a linear regression was made of each of the calibration curves, where the known concentrations were plotted as a function of the peak height.

[3] = test system: PC-3 cells; design: method as in Nielsen et al., 2022; conditions: ref Nielsen et al., 2022, read-out: Km of uptake; cited from earlier work
[4] = Kinetic solubility of MMTC diluted from DMSO stock into HBSS*; type: physicochemical; conditions: HBSS* buffer, 37°C
Description: Quantification of compounds was performed using a Waters 2695 HPLC system (Waters Corporation, MA, United States) connected to a Waters 2487 Dual λ Absorbance Detector (Waters Corporation, MA, United States). The mobile phases (MP) consisted of ultra-pure water containing 0.1% trifluoroacetic acid (MP A) and acetonitrile containing 0.1% trifluoroacetic acid (MP B). A reversed-phase column (Nova-Pak® C18, 4 μm, 3.9 × 150 mm, Waters, Milford, MA, United States) was applied and maintained at 22°C. The flow was constant at 0.6 mL ⋅ min^−1 with an isocratic elution of 40% MP A and 60% MP B for 53B, 55B, and 57B, an isocratic elution of 30% MP A and 70% MP B with a constant flow of 0.8 mL ⋅ min^−1 for MMTC, and an isocratic elution of 60% MP A and 40% MP B with a constant flow of 0.6 mL ⋅ min^−1 for […]. Samples of 20 μL, maintained at 25°C, were injected and all five compounds were measured at 270 nm. MMTC, 53B, 54F, 55B, and 57B had retention times of 4.00, 2.47, 5.14, 2.92, and 4.00 min, respectively. […] Linear regression of peak height as a function of concentration was analyzed using GraphPad Prism 9.4.1. […]
The 5 mL vials were then left on a rotator covered in aluminum foil at 37°C. […] The diluted samples were analyzed by HPLC-UV as described in Section 2.4. […]

[5] = test system: ASCT2; design: method as in Schulte et al., 2016; Schulte et al., 2018; conditions: HEK293 cells, ref Schulte et al., 2016, 2018; cited from earlier work
[6] = at soluble conditions / within soluble concentration range

SMILES: COC(=O)c1ccccc1NC(=O)Nc1c(-c2ccncc2)[nH]c2ccc(Cl)cc12 [55B]
Inhibition of 3H-Gly uptake [1, 6]: no inhibition
solubility thermodynamic ([2]; aqueous buffer): 13.2 ± 1.6 µM (≈ 5.56 µg/mL)
solubility thermodynamic [2]: 13.3 µM (≈ 5.6 µg/mL)

SMILES: NCC(=O)O [Gly, glycine]
Km [3]: 750 ± 160 µM

SMILES: N=C(N)NCCC[C@H](N)C(=O)O [L-Arg, L-arginine hydrochloride]
Effect on 3H-Gly uptake ([1]; 20 mM, 11.1 nM 3H-Gly, 5 min): did not affect the uptake significantly

SMILES: O=C(O)[C@@H]1CCCN1 [Pro]
Km [3]: 780 ± 100 µM

SMILES: Cc1cccc(COc2ccccc2CN(CC[C@H](N)C(=O)O)Cc2ccccc2OCc2cccc(C)c2)c1 [V-9302]
IC50 [5]: 7 to 10 µM

SMILES: C[N+](C)(C)CC(=O)O [betaine]
Inhibition of Gly uptake (in words) ([1]; 50 mM betaine, 20 mM Gln, Figure 1): almost completely inhibits
Inhibition of 3H-Gly uptake ([1]; 50 mM, 11.1 nM 3H-Gly, 5 min): around 86%

Next, values leading:

Inhibition of 3H-Gly uptake [1, 6]: no inhibition
solubility thermodynamic ([2]; aqueous buffer): 24.9 ± 0.8 µM (≈ 9.6 µg/mL)
SMILES: Cc1ccccc1Nc1c(-c2ccc(N3CCOCC3)cc2)nc2cnccn12 [53B]

Inhibition of 3H-Gly uptake compared to control ([1]; 50 µM compound, 11.1 nM 3H-Gly, 5 min, 37°C, 1% DMSO): approximately 20%
Inhibition of 3H-Gly uptake (overall finding, in words) [1]: significant, but small, inhibition
solubility thermodynamic ([2]; aqueous buffer): 56.1 ± 0.5 µM (≈ 23 µg/mL)
SMILES: CC(C)c1ccc(S(=O)(=O)Nc2ccc3nc(S(C)(=O)=O)sc3c2)cc1 [54F]

Inhibition of 3H-Gly uptake [1, 6]: no inhibition
solubility thermodynamic ([2]; aqueous buffer): 27.5 ± 1 µM (≈ 12.2 µg/mL)
SMILES: Cc1nc(-n2nc(C)c(Cc3ccc(Cl)cc3)c2C)sc1C(=O)N1CCN(C)CC1 [57B]

solubility kinetic ([4]; aqueous buffer, kinetic from dmso stock, within 15 min, remained stable for at least 45 min, read-out: MMTC concentration after dilution of DMSO stock to 10 µM in HBSS*): ~2.5 µM (≈ 1.17 µg/mL)
solubility kinetic ([4]; pH 7.4, HBSS*, during the course of the uptake study, read-out: Kinetic solubility): 2.5 to 10 µM (≈ 1.17 to 4.69 µg/mL)
Inhibition of Gly uptake ([1]; 1 µM MMTC, substrate concentration 100 µM Gly, Supplementary Figure S1, n = 1): does not inhibit
Inhibition of SNAT2-mediated 3H-Gly uptake ([1]; 1 µM compound, 11.1 nM 3H-Gly, 5 min, 37°C, 1% DMSO): no inhibition
Inhibition of SNAT2-mediated 3H-Gly uptake ([1]; 5 µM compound, 11.1 nM 3H-Gly, 5 min, 37°C, 1% DMSO): no inhibition
Inhibition of 3H-Gly uptake (overall finding, in words) [1]: did not inhibit
solubility thermodynamic ([2]; aqueous buffer): < 1.8 µM
SMILES: Cc1ccc(S(=O)(=O)N(C)c2ccsc2C(=O)NCc2ccccc2C(F)(F)F)cc1 [MMTC, 3-(N-methyl (4-methylphenyl)sulfonamido)-N-(2-trifluoromethylbenzyl)thiophene-2-carboxamide]
